Where “and” joins values, the source holds several entries; their conditions need not be identical. Equal values may be shown once.
Legend:
HCT116 cells = assay: HCT116 Cell Titer Glow assay (CTG); conditions: for IC50 / viability at 1000 µM: Homo sapiens, HCT-116, 72 h; for IC50: read-out: CTG IC50 (nM) Cell Line: HCT116.20; for viability at 1000 µM: read-out: CTG % cell viability 1000 uM HCT116.20, HCT116 cells, 72 hours, 1000 uM; for viability at 1000 µM / CTG % cell viability 1000 uM HCT116.20: percent cells remaining after treatment; for CTG % cell viability 1000 uM HCT116.20: HCT116 cells, 72 hours
IPC298 cells = assay: IPC298 Cell Titer Glow assay (CTG); conditions: for IC50: read-out: CTG IC50 (nM) Cell Line: IPC298.2

Compound | IC50 (HCT116 cells) [nM] | IC50 (IPC298 cells; Homo sapiens, IPC-298, 72 h) [nM] | viability at 1000 µM (HCT116 cells) [%] | CTG % cell viability 1000 uM HCT116.20 (HCT116 cells) | CTG % cell viability 1000 uM IPC298.2 (IPC298 cells; IPC298 cells, 72 hours, 1000 uM, percent cells remaining after treatment) [%] | viability at 100 µM (IPC298 cells; Homo sapiens, IPC-298, 72 h, read-out: CTG % cell viability 100 uM IPC298.2, IPC298 cells, 72 hours, 100 uM, percent cells remaining after treatment) [%]
Cc1c(Cc2ccnc(NS(=O)(=O)NC(C)C)c2F)cncc1Oc1ccc(Cl)cc1F [Example 90, 4-[[5-(4-chloro-2-fluoro-phenoxy)-4-methyl-3-pyridyl]methyl]-3-fluoro-N-(isopropylsulfamoyl)pyridin-2-amine] | > 1000 | 10 to 100 | 59.5 |  |  | 
CNS(=O)(=O)Nc1nccc(Cc2cncc(Oc3ccc(OC)cc3F)c2C)c1F [Example 94, 3-fluoro-4-[[5-(2-fluoro-4-methoxy-phenoxy)-4-methyl-3-pyridyl]methyl]-N-(methylsulfamoyl)pyridin-2-amine] | 100 to 500 | < 10 |  |  |  | 
CNS(=O)(=O)Nc1nccc(Cc2cncc(Sc3ccc(Cl)cc3)c2C)c1F [Example 78, {[4-({5-[(4-chlorophenyl)sulfanyl]-4-methylpyridin-3-yl}methyl)-3-fluoropyridin-2-yl]sulfamoyl}(methyl)amine] | 100 to 500 | < 10 |  |  |  | 
CNS(=O)(=O)Nc1nccc(Oc2cncc(Oc3ccc(C)cc3Cl)c2C)c1F [Example 84, 4-[[5-(2-chloro-4-methyl-phenoxy)-4-methyl-3-pyridyl]oxy]-3-fluoro-N-(methylsulfamoyl)pyridin-2-amine] | 500 to 1000 | < 10 |  |  |  | 
C#Cc1cnc(Nc2cncc(Cc3ccnc(NS(=O)(=O)NC)c3F)c2C)c(F)c1 [Example 60, 4-[[5-[(5-ethynyl-3-fluoro-2-pyridyl)amino]-4-methyl-3-pyridyl]methyl]-3-fluoro-N-(methylsulfamoyl)pyridin-2-amine] | 100 to 500 | < 10 |  |  |  | 
CNS(=O)(=O)Nc1nccc(Cc2cncc(Oc3ccc(Cl)cc3C)c2C)c1F [Example 76, 4-[[5-(4-chloro-2-methyl-phenoxy)-4-methyl-3-pyridyl]methyl]-3-fluoro-N-(methylsulfamoyl)pyridin-2-amine] | 100 to 500 | < 10 |  |  |  | 
CNS(=O)(=O)Nc1nccc(Cc2cncc(-c3cccc(Cl)c3F)c2C)c1F [Example 57, [(4-{[5-(3-chloro-2-fluorophenyl)-4-methylpyridin-3-yl]methyl}-3-fluoropyridin-2-yl)sulfamoyl](methyl)amine] | > 1000 | 10 to 100 | 56.8 | 45.51% |  | 
CNS(=O)(=O)Nc1nccc(Cc2cncc(Cc3ccc(Cl)cc3F)c2C)c1F [Example 50, {[4-({5-[(4-chloro-2-fluorophenyl)methyl]-4-methylpyridin-3-yl}methyl)-3-fluoropyridin-2-yl]sulfamoyl}(methyl)amine] | 500 to 1000 | 10 to 100 |  |  |  | 
CNS(=O)(=O)Nc1ccc(Cc2cncc(Oc3ncc(Cl)cc3F)c2C)cn1 [Example 46, 5-[[5-[(5-chloro-3-fluoro-2-pyridyl)oxy]-4-methyl-3-pyridyl]methyl]-N-(methylsulfamoyl)pyridin-2-amine] | > 1000 | > 1000 |  | 82.81, % and 79.54% | 19.34 | 
CNS(=O)(=O)Nc1nccc(Oc2cncc(Oc3ccc(Cl)cc3)c2C)c1F [Example 77, 4-[[5-(4-chlorophenoxy)-4-methyl-3-pyridyl]oxy]-3-fluoro-N-(methylsulfamoyl)pyridin-2-amine] | 100 to 500 | < 10 |  |  |  | 
CNS(=O)(=O)Nc1nccc(Cc2cccc(Nc3ccc(Cl)cc3F)c2C)c1F [Example 70, 4-[[3-(4-chloro-2-fluoro-anilino)-2-methyl-phenyl]methyl]-3-fluoro-N-(methylsulfamoyl)pyridin-2-amine] | > 1000 | 10 to 100 | 50.2 |  |  | 
CNS(=O)(=O)Nc1nccc(Cc2cncc(Nc3ncc(Cl)cc3F)c2C)c1F [Example 62, 4-[[5-[(5-chloro-3-fluoro-2-pyridyl)amino]-4-methyl-3-pyridyl]methyl]-3-fluoro-N-(methylsulfamoyl)pyridin-2-amine] | > 1000 | 10 to 100 | 46.4 |  |  | 
CCNS(=O)(=O)Nc1nccc(Cc2cncc(Oc3ccc(Cl)cc3F)c2C)c1F [Example 81, 4-[[5-(4-chloro-2-fluoro-phenoxy)-4-methyl-3-pyridyl]methyl]-N-(ethylsulfamoyl)-3-fluoro-pyridin-2-amine] | 100 to 500 | < 10 |  |  |  | 
CNS(=O)(=O)Nc1nccc(Cc2cncc(Nc3ccc(OC(F)(F)F)cn3)c2C)c1F [Example 69, 3-fluoro-N-(methylsulfamoyl)-4-[[4-methyl-5-[[5-(trifluoromethoxy)-2-pyridyl]amino]-3-pyridyl]methyl]pyridin-2-amine] | > 1000 | 10 to 100 | 60.4 |  |  | 
CNS(=O)(=O)Nc1nccc(Cc2cnnc(Nc3ccc(Cl)cc3F)c2C)c1F [Example 52, N-(4-chloro-2-fluoro-phenyl)-5-[[3-fluoro-2-(methylsulfamoylamino)-4-pyridyl]methyl]-4-methyl-pyridazin-3-amine] | 100 to 500 | < 10 |  |  |  | 
CNS(=O)(=O)Nc1nccc(Cc2cncc(Nc3ccc(CC(C)C)cc3F)c2C)c1F [Example 88, 3-fluoro-4-[[5-(2-fluoro-4-isobutyl-anilino)-4-methyl-3-pyridyl]methyl]-N-(methylsulfamoyl)pyridin-2-amine] | 100 to 500 | < 10 |  |  |  | 
CNS(=O)(=O)Nc1nccc(Cc2cncc(Oc3ncc(C)s3)c2C)c1F [Example 89, 3-fluoro-4-[[4-methyl-5-(5-methylthiazol-2-yl)oxy-3-pyridyl]methyl]-N-(methylsulfamoyl)pyridin-2-amine] | > 1000 | > 1000 | 95 |  |  | 100
CNS(=O)(=O)Nc1nccc(Cc2cncc(OCc3cccc(Cl)c3)c2C)c1F [Example 86, 4-[[5-[(3-chlorophenyl)methoxy]-4-methyl-3-pyridyl]methyl]-3-fluoro-N-(methylsulfamoyl)pyridin-2-amine] | 100 to 500 | 10 to 100 |  |  |  | 
CNS(=O)(=O)Nc1nccc(Cc2cncc(Oc3ccc(C(F)(F)F)cc3F)c2C)c1F [Example 51, 3-fluoro-4-[[5-[2-fluoro-4-(trifluoromethyl)phenoxy]-4-methyl-3-pyridyl]methyl]-N-(methylsulfamoyl)pyridin-2-amine] | 100 to 500 |  |  |  |  | 
CNS(=O)(=O)Nc1nccc(Cc2cncc(Nc3ncccn3)c2C)c1F [Example 55, N-[5-[[3-fluoro-2-(methylsulfamoylamino)-4-pyridyl]methyl]-4-methyl-3-pyridyl]pyrimidin-2-amine] | > 1000 |  | 80.9 |  |  | 

Second part, led by results:

IC50 (HCT116 cells) [nM] | Compound | IC50 (IPC298 cells; Homo sapiens, IPC-298, 72 h) [nM] | viability at 1000 µM (HCT116 cells) [%] | CTG % cell viability 1000 uM HCT116.20 (HCT116 cells) | CTG % cell viability 1000 uM IPC298.2 (IPC298 cells; IPC298 cells, 72 hours, 1000 uM, percent cells remaining after treatment) [%] | viability at 100 µM (IPC298 cells; Homo sapiens, IPC-298, 72 h, read-out: CTG % cell viability 100 uM IPC298.2, IPC298 cells, 72 hours, 100 uM, percent cells remaining after treatment) [%]
100 to 500 | CNS(=O)(=O)Nc1nccc(Cc2cncc(-c3cc(Cl)ccc3F)c2C)c1F [Example 56, [(4-{[5-(5-chloro-2-fluorophenyl)-4-methylpyridin-3-yl]methyl}-3-fluoropyridin-2-yl)sulfamoyl](methyl)amine] | < 10 |  |  |  | 
10 to 100 | CNS(=O)(=O)N1CCc2c(Cc3cncc(Nc4ccc(Cl)cc4F)c3C)ccnc21 [Example 43, 4-({5-[(4-chloro-2-fluorophenyl)amino]-4-methylpyridin-3-yl}methyl)-N-methyl-2H,3H-pyrrolo[2,3-b]pyridine-1-sulfonamide] | < 10 |  |  |  | 
10 to 100 | CNS(=O)(=O)Nc1nccc(Cc2cncc(Oc3ccc(Cl)cc3F)c2C)c1F [Example 49, [(4-{[5-(4-chloro-2-fluorophenoxy)-4-methylpyridin-3-yl]methyl}-3-fluoropyridin-2-yl)sulfamoyl](methyl)amine] | < 10 |  |  |  | 
< 10 | CNS(=O)(=O)Nc1nccc(Cc2cncc(Oc3ccc(C4CC4)cc3F)c2C)c1F [Example 99, 4-[[5-(4-cyclopropyl-2-fluoro-phenoxy)-4-methyl-3-pyridyl]methyl]-3-fluoro-N-(methylsulfamoyl)pyridin-2-amine] | < 10 |  |  |  | 
10 to 100 | CCNS(=O)(=O)Nc1nccc(Cc2cncc(Nc3ccc(C)cc3F)c2C)c1F [Example 95, N-(ethylsulfamoyl)-3-fluoro-4-[[5-(2-fluoro-4-methyl-anilino)-4-methyl-3-pyridyl]methyl]pyridin-2-amine] | < 10 |  |  |  | 
10 to 100 | CNS(=O)(=O)Nc1nccc(Cc2cncc(Nc3ccc(Cl)cc3F)c2C)c1OC [Example 45, 4-[[5-(4-chloro-2-fluoro-anilino)-4-methyl-3-pyridyl]methyl]-3-methoxy-N-(methylsulfamoyl)pyridin-2-amine] |  |  |  |  | 
10 to 100 | CNS(=O)(=O)Nc1nccc(Cc2cncc(Oc3ccc(Cl)cc3F)c2C)c1OC [Example 93, 4-[[5-(4-chloro-2-fluoro-phenoxy)-4-methyl-3-pyridyl]methyl]-3-methoxy-N-(methylsulfamoyl)pyridin-2-amine] | < 10 |  |  |  | 
10 to 100 | CNS(=O)(=O)Nc1nccc(Cc2cncc(Nc3ccc(Cl)cc3F)c2Cl)c1F [Example 67, 4-chloro-N-(4-chloro-2-fluorophenyl)-5-({3-fluoro-2-[(methylsulfamoyl)amino]pyridin-4-yl}methyl)pyridin-3-amine] | < 10 |  |  |  | 
< 10 | CNS(=O)(=O)Nc1nccc(Cc2cncc(Oc3ccc(SC)cc3)c2C)c1F [Example 71, {[3-fluoro-4-({4-methyl-5-[4-(methylsulfanyl)phenoxy]pyridin-3-yl}methyl)pyridin-2-yl]sulfamoyl}(methyl)amine] | < 10 |  |  |  | 
10 to 100 | CNS(=O)(=O)Nc1nccc(Cc2cncc(Nc3ccc(Cl)cc3F)c2C)n1 [Example 53, 4-[[5-(4-chloro-2-fluoro-anilino)-4-methyl-3-pyridyl]methyl]-N-(methylsulfamoyl)pyrimidin-2-amine] |  |  |  |  | 

— patent US20250288571A1 (Nested Therapeutics, Inc., priority 2024, published 2025)
